Key:
Format in all cases: in vivo
wheat (Triticum spp.) [1] = test: Test Example 2: soil application on the day after sowing, wheat; conditions: 250 g/ha active ingredient, observed 19th to 28th day after application; for inhibition at 250 g/ha: Triticum, read-out: Growth inhibition rate (%) Wheat
Excerpt: (§1) Upland field soil was put into a 1/170,000 hectare pot, and seeds of various plants barnyardgrass (Echinochloa crus-galli L.), crabgrass (Digitaria sanquinalis L.), green foxtail (Setaria viridis L.), redroot pigweed (Amaranthus retroflexus L.), prickly sida (Sida spinosa L.), velvetleaf (Abutilon theophrasti MEDIC.), rice (Oryza sativa L.), wheat (Triticum spp.), corn (Zea mays L.) and soybean (Glycine max Merr.)) were sown. On the day after sowing, wettable powders or emulsifiable concentrates of the compounds of the above formula (I) prepared in accordance with a conventional preparation method, were weighed so that the active ingredients became the prescribed amounts, and diluted with water in an amount corresponding to 500 liter per 1 hectare, followed by soil application with a small sprayer.
(§2) On the 19th to 28th day after the application, the state of growth of the respective plants was visually observed, and the herbicidal effect was evaluated by a growth inhibition rate (%) of from 0 (equivalent to the non-treated area) to 100% (complete kill).

[2] = tested on: velvetleaf (Abutilon theophrasti MEDIC.); test: Test Example 1: foliar treatment, upland pot test, velvetleaf
Excerpt: (§3) Upland field soil was put into a 1/170,000 hectare pot, and seeds of various plants were sown. When the respective plants reached predetermined leaf stage ((1) barnyardgrass (Echinochloa crus-galli L.): 1.0 to 3.0 leaf stage, (2) crabgrass (Digitaria sanguinalis L.): 1.0 to 3.0 leaf stage, (3) green foxtail (Setaria viridis L.): 1.0 to 3.0 leaf stage, (4) redroot pigweed (Amaranthus retroflexus L.): cotyledon stage to 2.0 leaf stage, (5) prickly sida (Sida spinosa L.): cotyledon stage to 1.0 leaf stage, (6) velvetleaf (Abutilon theophrasti MEDIC.): 0.1 to 1.5 leaf stage, (7) rice (Oryza sativa L.): 1.0 to 3.0 leaf stage, (8) wheat (Triticum spp.): 1.7 to 3.4 leaf stage, (9) corn (Zea mays L.): 2.0 to 3.5 leaf stage, (10) soybean (Glycine max Merr.): primary leaf stage to 0.4 leaf stage), wettable powders or emulsifiable concentrates of the compounds of the above formula (I) prepared in accordance with a conventional preparation method, were weighed so that the active ingredients became the prescribed amounts, and diluted with water in an amount corresponding to 500 liter per 1 hectare (containing 0.1 vol % of “KUSARINOH”, manufactured by NIHON NOHYAKU CO., LTD. as an agricultural spreader). The spray solutions thus prepared were applied for foliar treatment by a small sprayer.
(§4) On the 17th to 25th day after application, the state of growth of the respective plants was visually observed, and the herbicidal effect was evaluated by a growth inhibition rate (%) of 0 (equivalent to the non-treated area) to 100% (complete kill).

[3] = tested on: green foxtail (Setaria viridis L.); test: Test Example 2: soil application on the day after sowing, green foxtail; conditions: 250 g/ha active ingredient, observed 19th to 28th day after application; for inhibition at 250 g/ha: Setaria viridis, read-out: Growth inhibition rate (%) Green foxtail
Excerpt: as §1, §2

[4] = tested on: barnyardgrass (Echinochloa crus-galli L.); test: Test Example 1: foliar treatment, upland pot test, barnyardgrass
Excerpt: as §3, §4

[5] = tested on: prickly sida (Sida spinosa L.); test: Test Example 2: soil application on the day after sowing, prickly sida; conditions: 250 g/ha active ingredient, observed 19th to 28th day after application; for inhibition at 250 g/ha: Sida spinosa, read-out: Growth inhibition rate (%) Prickly sida
Excerpt: as §1, §2

[6] = tested on: crabgrass (Digitaria sanquinalis L.); test: Test Example 2: soil application on the day after sowing, crabgrass; conditions: 250 g/ha active ingredient, observed 19th to 28th day after application; for inhibition at 250 g/ha: Digitaria, read-out: Growth inhibition rate (%) Crabgrass
Excerpt: as §1, §2

rice (Oryza sativa L.) [7] = test: Test Example 2: soil application on the day after sowing, rice; conditions: 250 g/ha active ingredient, observed 19th to 28th day after application; for inhibition at 250 g/ha: Oryza sativa, read-out: Growth inhibition rate (%) Rice
Excerpt: as §1, §2

corn (Zea mays L.) [8] = test: Test Example 2: soil application on the day after sowing, corn; conditions: 250 g/ha active ingredient, observed 19th to 28th day after application; for inhibition at 250 g/ha: Zea mays, read-out: Growth inhibition rate (%) Corn
Excerpt: as §1, §2

[9] = tested on: crabgrass (Digitaria sanguinalis L.); test: Test Example 1: foliar treatment, upland pot test, crabgrass
Excerpt: as §3, §4

[10] = tested on: soybean (Glycine max Merr.); test: Test Example 2: soil application on the day after sowing, soybean; conditions: 250 g/ha active ingredient, observed 19th to 28th day after application; for inhibition at 250 g/ha: Glycine max, read-out: Growth inhibition rate (%) Soybean
Excerpt: as §1, §2

wheat (Triticum spp.) [11] = test: Test Example 1: foliar treatment, upland pot test, wheat
Excerpt: as §3, §4

[12] = tested on: prickly sida (Sida spinosa L.); test: Test Example 1: foliar treatment, upland pot test, prickly sida
Excerpt: as §3, §4

[13] = tested on: green foxtail (Setaria viridis L.); test: Test Example 1: foliar treatment, upland pot test, green foxtail
Excerpt: as §3, §4

rice (Oryza sativa L.) [14] = test: Test Example 1: foliar treatment, upland pot test, rice
Excerpt: as §3, §4

[15] = tested on: soybean (Glycine max Merr.); test: Test Example 1: foliar treatment, upland pot test, soybean
Excerpt: as §3, §4

[16] = tested on: barnyardgrass (Echinochloa crus-galli L.); test: Test Example 2: soil application on the day after sowing, barnyardgrass; conditions: 250 g/ha active ingredient, observed 19th to 28th day after application; for inhibition at 250 g/ha: Echinochloa crus-galli, read-out: Growth inhibition rate (%) Barnyardgrass
Excerpt: as §1, §2

[17] = tested on: redroot pigweed (Amaranthus retroflexus L.); test: Test Example 2: soil application on the day after sowing, redroot pigweed; conditions: 250 g/ha active ingredient, observed 19th to 28th day after application; for inhibition at 250 g/ha: Amaranthus retroflexus, read-out: Growth inhibition rate (%) Redroot pigweed
Excerpt: as §1, §2

[18] = tested on: velvetleaf (Abutilon theophrasti MEDIC.); test: Test Example 2: soil application on the day after sowing, velvetleaf; conditions: 250 g/ha active ingredient, observed 19th to 28th day after application; for inhibition at 250 g/ha: Abutilon theophrasti, read-out: Growth inhibition rate (%) Velvetleaf
Excerpt: as §1, §2

corn (Zea mays L.) [19] = test: Test Example 1: foliar treatment, upland pot test, corn
Excerpt: as §3, §4

[20] = tested on: redroot pigweed (Amaranthus retroflexus L.); test: Test Example 1: foliar treatment, upland pot test, redroot pigweed
Excerpt: as §3, §4

[21] = 31 g/ha active ingredient, observed 17th to 25th day after application

SMILES	Growth inhibition rate (%) Wheat (wheat (Triticum spp.) [1]) [%]	Growth inhibition rate (%) Velvetleaf [2, 21] [%]	Growth inhibition rate (%) Green foxtail [3] [%]	Growth inhibition rate (%) Barnyardgrass [4, 21] [%]	Growth inhibition rate (%) Prickly sida [5] [%]	Growth inhibition rate (%) Crabgrass [6] [%]	Growth inhibition rate (%) Rice (rice (Oryza sativa L.) [7]) [%]	Growth inhibition rate (%) Corn (corn (Zea mays L.) [8]) [%]	Growth inhibition rate (%) Crabgrass [9, 21] [%]	Growth inhibition rate (%) Soybean [10] [%]	Growth inhibition rate (%) Wheat (wheat (Triticum spp.) [11]; [21]) [%]	Growth inhibition rate (%) Prickly sida [12, 21] [%]	Growth inhibition rate (%) Green foxtail [13, 21] [%]	Growth inhibition rate (%) Rice (rice (Oryza sativa L.) [14]; [21]) [%]	Growth inhibition rate (%) Soybean [15, 21] [%]	Growth inhibition rate (%) Barnyardgrass [16] [%]	Growth inhibition rate (%) Redroot pigweed [17] [%]	Growth inhibition rate (%) Velvetleaf [18] [%]	Growth inhibition rate (%) Corn (corn (Zea mays L.) [19]; [21]) [%]	Growth inhibition rate (%) Redroot pigweed [20, 21] [%]	also measured
COc1c(S(C)(=O)=O)ccc(C(=O)c2cnn(C)c2O)c1C [compound 143]																					inhibition at 250 g/ha (wheat (Triticum spp.) [1]): 70%; inhibition at 31 g/ha ([2]; Abutilon theophrasti, 31 g/ha active ingredient, observed 17th to 25th day after application, read-out: Growth inhibition rate (%) Velvetleaf): 98%; inhibition at 250 g/ha [3]: 100%; inhibition at 31 g/ha ([4]; Echinochloa crus-galli, 31 g/ha active ingredient, observed 17th to 25th day after application, read-out: Growth inhibition rate (%) Barnyardgrass): 10%; inhibition at 250 g/ha [5]: 90%; inhibition at 250 g/ha [6]: 100%; inhibition at 250 g/ha (rice (Oryza sativa L.) [7]): 100%; inhibition at 250 g/ha (corn (Zea mays L.) [8]): 20%; inhibition at 31 g/ha ([9]; Digitaria sanguinalis, 31 g/ha active ingredient, observed 17th to 25th day after application, read-out: Growth inhibition rate (%) Crabgrass): 70%; inhibition at 250 g/ha [10]: 80%; inhibition at 31 g/ha (wheat (Triticum spp.) [11]; Triticum, 31 g/ha active ingredient, observed 17th to 25th day after application, read-out: Growth inhibition rate (%) Wheat): 10%; inhibition at 31 g/ha ([12]; Sida spinosa, 31 g/ha active ingredient, observed 17th to 25th day after application, read-out: Growth inhibition rate (%) Prickly sida): 70%; inhibition at 31 g/ha ([13]; Setaria viridis, 31 g/ha active ingredient, observed 17th to 25th day after application, read-out: Growth inhibition rate (%) Green foxtail): 70%; inhibition at 31 g/ha (rice (Oryza sativa L.) [14]; Oryza sativa, 31 g/ha active ingredient, observed 17th to 25th day after application, read-out: Growth inhibition rate (%) Rice): 40%; inhibition at 31 g/ha ([15]; Glycine max, 31 g/ha active ingredient, observed 17th to 25th day after application, read-out: Growth inhibition rate (%) Soybean): 60%; inhibition at 250 g/ha [16]: 100%; inhibition at 250 g/ha [17]: 100%; inhibition at 250 g/ha [18]: 100%; inhibition at 31 g/ha (corn (Zea mays L.) [19]; Zea mays, 31 g/ha active ingredient, observed 17th to 25th day after application, read-out: Growth inhibition rate (%) Corn): 0%; inhibition at 31 g/ha ([20]; Amaranthus retroflexus, 31 g/ha active ingredient, observed 17th to 25th day after application, read-out: Growth inhibition rate (%) Redroot pigweed): 80%
CCc1nn(C)c(O)c1C(=O)c1ccc(S(C)(=O)=O)c(OCCOC)c1C [compound 261]	0	95	60	90	20	95	20	20	90	0	5	50	80	80	50	50	100	30	0	95	
CCCOC(=O)c1c(S(C)(=O)=O)ccc(C(=O)c2cnn(CC)c2O)c1Cl [compound 154]	0	60	30	40	60	95	50	0	70	0	0	40	60	50	30	100	100	40	0	70	
CCn1ncc(C(=O)c2ccc(S(C)(=O)=O)c(OCCC3OCCO3)c2Cl)c1O [compound 244]																					inhibition at 250 g/ha (wheat (Triticum spp.) [1]): 0%; inhibition at 63 g/ha ([2]; Abutilon theophrasti, 63 g/ha active ingredient, observed 21st day after application, read-out: Growth inhibition rate (%) Velvetleaf): 70%; inhibition at 250 g/ha [3]: 70%; inhibition at 63 g/ha ([4]; Echinochloa crus-galli, 63 g/ha active ingredient, observed 21st day after application, read-out: Growth inhibition rate (%) Barnyardgrass): 50%; inhibition at 250 g/ha [5]: 60%; inhibition at 250 g/ha [6]: 90%; inhibition at 250 g/ha (rice (Oryza sativa L.) [7]): 80%; inhibition at 250 g/ha (corn (Zea mays L.) [8]): 0%; inhibition at 63 g/ha ([9]; Digitaria sanguinalis, 63 g/ha active ingredient, observed 21st day after application, read-out: Growth inhibition rate (%) Crabgrass): 20%; inhibition at 250 g/ha [10]: 0%; inhibition at 63 g/ha (wheat (Triticum spp.) [11]; Triticum, 63 g/ha active ingredient, observed 21st day after application, read-out: Growth inhibition rate (%) Wheat): 0%; inhibition at 63 g/ha ([12]; Sida spinosa, 63 g/ha active ingredient, observed 21st day after application, read-out: Growth inhibition rate (%) Prickly sida): 50%; inhibition at 63 g/ha ([13]; Setaria viridis, 63 g/ha active ingredient, observed 21st day after application, read-out: Growth inhibition rate (%) Green foxtail): 40%; inhibition at 63 g/ha (rice (Oryza sativa L.) [14]; Oryza sativa, 63 g/ha active ingredient, observed 21st day after application, read-out: Growth inhibition rate (%) Rice): 10%; inhibition at 63 g/ha ([15]; Glycine max, 63 g/ha active ingredient, observed 21st day after application, read-out: Growth inhibition rate (%) Soybean): 70%; inhibition at 250 g/ha [16]: 100%; inhibition at 250 g/ha [17]: 90%; inhibition at 250 g/ha [18]: 80%; inhibition at 63 g/ha (corn (Zea mays L.) [19]; Zea mays, 63 g/ha active ingredient, observed 21st day after application, read-out: Growth inhibition rate (%) Corn): 0%; inhibition at 63 g/ha ([20]; Amaranthus retroflexus, 63 g/ha active ingredient, observed 21st day after application, read-out: Growth inhibition rate (%) Redroot pigweed): 80%
COCCOc1c(S(C)(=O)=O)ccc(C(=O)c2c(C)nn(C)c2O)c1C [compound 259]	0	98	60	95	0	100	10	0	95	20	0	60	100	70	95	10	90	70	0	95	

— patent US20100317528A1, “HERBICIDE CONTAINING BENZOYLPYRAZOLE COMPOUND” (ISHIHARA SANGYO KAISHA, LTD., priority 2006, published 2010)
